Results as given in PubChem BioAssay (NCI).
Values joined by “and” are separate entries in the source; they are usually repeats but may differ in a detail not shown here. Equal entries are not always repeated.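 Following 48 hours of exposure in 96-well plates, responses at five concentrations were used to interpolate endpoints linearly. Here, GI50 denotes the concentration required for 50% inhibition of growth. The concentration for full growth arrest is given as TGI.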

Assays:
Experiment in all cases: DTP human tumour cell line panel, 48 h
SNB-19 CNS = test system: SNB-19 CNS
SF-539 CNS = test system: SF-539 CNS
OVCAR-5 ovarian = test system: OVCAR-5 ovarian
A498 renal = test system: A498 renal
EKVX NSCLC = test system: EKVX NSCLC
SF-295 CNS = test system: SF-295 CNS
NCI/ADR-RES ovarian = test system: NCI/ADR-RES ovarian
UACC-257 melanoma = test system: UACC-257 melanoma
786-0 renal = test system: 786-0 renal
SW-620 colon = test system: SW-620 colon

SMILES	GI50 (SNB-19 CNS)	TGI (SNB-19 CNS)	TGI (SF-539 CNS)	GI50 (OVCAR-5 ovarian) [µM]	TGI (OVCAR-5 ovarian)	GI50 (A498 renal)	TGI (A498 renal)	TGI (EKVX NSCLC)	GI50 (SF-295 CNS) [µM]	TGI (SF-295 CNS)	GI50 (NCI/ADR-RES ovarian)	TGI (NCI/ADR-RES ovarian)	GI50 (UACC-257 melanoma) [µM]	GI50 (786-0 renal)	TGI (786-0 renal)	TGI (SW-620 colon)	TGI (UACC-257 melanoma)	GI50 (EKVX NSCLC) [µM]	GI50 (SW-620 colon) [µM]	GI50 (SF-539 CNS) [µM]
COc1ccc([C@@]23Oc4cc(OC)cc(OC)c4[C@]2(O)[C@H](O)[C@H](C(=O)N(C)C)[C@H]3c2ccccc2)cc1	0.0113 µM	1.37 µM and 0.159 µM	0.00512 µM and 0.0154 µM	0.0116	0.0626 µM and 0.0694 µM and 0.0417 µM	0.0155 µM	0.0234 µM and 0.00719 µM and 0.0403 µM	0.22 µM and 0.17 µM	0.0124	0.0433 µM and 0.0867 µM	0.0077 µM and 0.0566 µM	0.442 µM and 0.329 µM and 1.55 µM	0.0309	0.0287 µM	0.159 µM and 0.0333 µM and 0.215 µM	1.02 µM and 0.26 µM and 0.244 µM				
Cc1cc(NC(=O)NC(=O)c2ccccc2NC(=O)CN(C)C)ccc1Oc1ncc(Br)cn1		> 100 µM	10.6 µM		> 100 µM		17 µM	> 100 µM		16.2 µM		> 27.8 µM			> 89.3 µM	> 100 µM	> 100 µM			
CN(C)C1C(=O)C(C(N)=O)=C(O)C2(O)C(=O)C3=C(O)c4c(O)cccc4C(C)(O)C3CC12.[Cl][Sb]([Cl])[Cl] (configuration not stated)				7.29	26.1 µM	2.96 µM	11.4 µM	8.01 µM			3.19 µM	16.6 µM	3.12	4.14 µM	17.6 µM	16.5 µM	11.8 µM	2.96	4.01	
NC1=NC(c2ccccc2Cl)c2c(n[nH]c2N)N1 (configuration not stated)	39.7 µM	> 100 µM	> 100 µM	50.2	> 100 µM	17.5 µM	> 100 µM	> 100 µM	16.7	> 100 µM	30.4 µM	> 100 µM	94.6	9.18 µM	> 100 µM	> 100 µM	> 100 µM	44.2	18.9	57
O=C(CI)NC(=O)NC(=O)NCc1ccccc1	13 µM	31.9 µM	4 µM	2.98	10.8 µM	15.9 µM	30.9 µM	39.6 µM	14.1	31.9 µM	4.62 µM	30.3 µM	11.5	1.98 µM	4.18 µM	3.78 µM	23.9 µM	17.5	1.77	1.92
CC[n+]1c(-c2ccccc2)c2cc(N)ccc2c2ccc(N)cc21	0.368 µM and 0.502 µM and 1.43 µM		4.4 µM and 6.43 µM and 6.19 µM	5.67	57.6 µM and > 100 µM	5.18 µM and 4.76 µM and 14.7 µM	40.8 µM and 52.5 µM and 66.2 µM	34.2 µM and 42.8 µM and > 100 µM	1.51	13.7 µM and 15.5 µM and 29 µM		> 100 µM	1.22	1.37 µM and 1.16 µM and 3.57 µM	13.6 µM and 12.7 µM and 26.1 µM	16.2 µM and 33.3 µM and 22.2 µM	4.8 µM and 10 µM and 6.4 µM		1.05	0.763
C/C(=C/CCC(C)[C@@H]1CC[C@]2(C)C3=C(CC[C@@]12C)[C@@]1(C)CCC(=O)C(C)(C)[C@@H]1CC3)C(=O)O (some centres not stated)	1.17 µM	2.68 µM	2.93 µM	1.68	3.29 µM	0.975 µM	2.39 µM	2.19 µM	0.506	2.02 µM	1.54 µM	3.26 µM	1.56	1.18 µM	2.57 µM	3.41 µM	3.06 µM	0.705	1.39	1.37
COc1cc([C@@H]2c3cc4c(cc3[C@H](SC(=N)N)[C@H]3COC(=O)[C@H]23)OCO4)cc(OC)c1OC	0.449 µM	> 100 µM	> 100 µM	0.638	> 100 µM			> 100 µM	0.0369	0.19 µM	0.253 µM	> 100 µM	15.1	0.435 µM	> 100 µM	> 100 µM	> 100 µM	0.291	0.265	0.144
COc1cccc(-c2cc(=O)c3cc(N4CCN(C)CC4)ccc3[nH]2)c1		8.41 µM	2.36 µM and 7.13 µM	6.24	> 100 µM		5.32 µM		8.34		3.68 µM			5.28 µM	> 100 µM	> 100 µM		2.96	0.755	1.5
O=[N+]([O-])/C=C/c1ccc2ccccc2c1		5.13 µM	> 100 µM		> 30.1 µM		25.7 µM	> 55 µM		19.4 µM		> 28 µM			> 20.4 µM	3.99 µM	6.63 µM			
COC(=O)[C@]12CC[C@@H](C)[C@H](C)[C@@H]1C1=CC[C@@H]3[C@@]4(C)C(C=O)=C[C@@](C)(COS(C)(=O)=O)C4=CC[C@@]3(C)[C@]1(C)CC2	0.48 µM	1.96 µM	0.451 µM	0.215	0.57 µM	0.193 µM	1.13 µM	1.34 µM	0.296	1.26 µM	0.325 µM	1.97 µM		0.189 µM	0.415 µM	0.484 µM		0.315	0.209	0.207
OCc1ccc(-c2ccc(-c3ccc(CO)o3)o2)o1	> 90.8 µM	> 100 µM	> 100 µM	0.641	3 µM	0.18 µM	0.39 µM		23.7	> 100 µM	> 100 µM	> 100 µM	2.85	35.3 µM	> 100 µM	> 100 µM	11.9 µM		> 100	> 100
O=C(Nc1ccccc1C(=O)NC(=O)c1ccccc1NC(=O)c1ccccc1)c1ccccc1		24.8 µM	18.9 µM		13.5 µM		33.3 µM	28.3 µM		26.6 µM					29.3 µM	18.6 µM	4.94 µM			
CNC(=O)OCc1nc(SSc2nc(COC(=O)NC)c(COC(=O)NC)n2C)n(C)c1COC(=O)NC		> 100 µM	> 100 µM		> 100 µM		> 100 µM	> 100 µM		> 100 µM					> 100 µM	> 100 µM	> 100 µM			
